“Also recorded” adds a separate entry of the source.
Legend:
TILs [1] = test: Expansion and viability of TILs treated with drug during ex vivo 22-day expansion; format: cell-based, human; details: ipatasertib 0.3 or 1 μM, pre-REP and REP or REP only, relative to controls
Experimental: Patient tumors from different indications were received, fragmented, and subjected to an expansion protocol for TIL manufacturing. Different doses (0.3 μM and 1 μM) of the pan-AKT inhibitor ipatasertib were added to the culture during ex vivo expansion. The expansion potential, as well as the phenotypic and functional characteristics were evaluated on the final TIL product. Eight tumors, including tumors from melanoma, NSCLC, head and neck cancer, ovarian cancer, and breast cancer, were used in combination with the Gen 2 process.
Expansion, viability and T cell distribution in control and AKT inhibitor-treated TILs are shown. TILs were left untreated or treated with increasing concentrations of the pan-AKT inhibitor ipatasertib. Treatment was added either during the pre-REP and REP (blue bars) or during the REP stage only (purple bars). Fold expansion and viability of TIL at the end of the 22-day expansion process are shown. Frequency of CD8^+, CD4^+ and CD4^+ (Foxp3^+) cells after the expansion process on cryopreserved cells are also shown.
In this example, the use of decitabine, a DNA hypomethylation agent, in culture as an epigenetic modifier of TIL products was explored. […] Patient tumors (N=8) from different tumor types (non-small cell lung, head and neck, ovarian, and breast cancers) were obtained from donors, fragmented, and subjected to a 22-day expansion protocol for TIL generation. Different doses (10 nM, 30 nM, and 100 nM) of decitabine were added to the culture during ex vivo expansion either during the pre-REP and REP stages or during REP only. The expansion potential as well as the phenotypic and functional characteristics of TILs were evaluated in the final TIL product.
TILs were left untreated (CTRL, gray bars) or treated with increasing concentrations of decitabine. Treatment was added either during the REP stage only (blue bars) or during both pre-REP and REP (green bars).

TILs [2] = test: Flow cytometry phenotype of drug-treated TILs (T-cell subsets, surface markers, transcription factors); format: cell-based, human
TILs [3] = test: Cytokine expression of drug-treated TILs after overnight anti-CD3/CD28 bead stimulation; format: cell-based, human
PD-L1 = molecular target: T1, PD-L1 (human, UniProt Q9NZQ7 19-290, limits assumed); test: characterization of the anti-PD-L1 antibody clone; EC50 assay method not given
T1 construct: also called hPD-L1; CD274
T1 sequence (Q9NZQ7 19-290 limits assumed): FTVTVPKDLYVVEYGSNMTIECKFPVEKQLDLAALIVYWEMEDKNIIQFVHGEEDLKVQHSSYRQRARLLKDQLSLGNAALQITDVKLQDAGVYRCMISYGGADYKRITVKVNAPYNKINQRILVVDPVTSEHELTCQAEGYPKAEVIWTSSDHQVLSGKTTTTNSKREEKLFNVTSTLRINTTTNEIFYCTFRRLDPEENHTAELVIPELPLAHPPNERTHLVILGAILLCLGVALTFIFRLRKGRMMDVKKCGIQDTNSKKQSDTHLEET

[4] = AKT inhibition during expansion

Molecule | TIL expansion (fold expansion) (TILs [1]) | TIL viability (TILs [1]) | TIL expansion (fold expansion) (TILs [1]; listed as AKT inhibitor) | TIL viability (TILs [1]; listed as AKT inhibitor) | IL-7R and CXCR3 expression on CD8+ TILs (TILs [2]; [4]) | frequency of CD8+ TEMRA cells (TILs [2]; [4]) | population of less differentiated CD39-CD69- cells (TILs [2]; AKT inhibitor during expansion, relative to controls) | TOX expression following stimulation (TILs [2]; AKT inhibitor-treated TILs) | expression of CD38 and transcription factors T-bet and TOX (TILs [2]; CD39-CD69- cells, AKT inhibitor 1 μM) | T cell ratios (CD8+, CD4+, CD4+ Foxp3+) (TILs [2]; ipatasertib-treated TILs after expansion) | cytokine output following stimulation (TILs [3]; 1 μM ipatasertib at pre-REP and REP, anti-CD3/CD28 beads 1:5 overnight) | frequency of IFNγ+ TNFα+ CD8+ T cells (TILs [3]; AKT inhibitor treatment) | EC50 (PD-L1) [nM]
CC(C)NC[C@@H](C(=O)N1CCN(c2ncnc3c2[C@H](C)C[C@H]3O)CC1)c1ccc(Cl)cc1 [ipatasertib] | maintains | maintains | equivalent | equivalent | increase | increase | increases; also recorded: doubled | lower TOX expression | reduced expression | without affecting T cell ratios | higher cytokine output | increase | –
anti-PD-L1 antibody clone 38A1-IgG4-HA (antibody) EVQLVESGGGLVQPGGSLRLSCAASGFTFSNYAMSWVRQAPGKGLEWVSTISGSGGTTYYADSVKGRFTISRDNSKNTLYLQMNSLRVEDTAVYYCAKDWFRSSSPDAFDIWGQGTTVTVSAGGGGSGGGGSGGGGSGAPSYVLTQPPSVSVAPGQTARITCGGNNIGRKIVHWYQQRPGQAPVLVIYYDTDRPAGIPERFSGSNSGNMATLTISTVGAGDEADYYCQVWDTGSDHVVFGGGTKLTVL | – | – | – | – | – | – | – | – | – | – | – | – | 0.404
anti-PD-L1 antibody clone 19H9-IgG4-Flag (antibody) QVQLQESGGGLVKPGGSLRLSCAASGFTFSSYSMNWVRQAPGKGLEWVSGINTAGDTHYPESVKGRFTISRDNARNSLNLQMNSLRAEDTAVYYCVRERVEREYSGYDAFDIWGQGTTVTVSAGGGGSGGGGSGGGGSGAPNFMLTQPHSVSESLGKTVTISCTGSSGSIARKFVQWYQQRPGSSPTTVIYENNQRPSGVSDRFSGSIGSSSNSASLTISGLKTEDEADYYCQSYDSSNVVFGGGTKVTVL | – | – | – | – | – | – | – | – | – | – | – | – | 0.125
